Source: patent US10952961B2, “Implants and constructs including hollow fibers” (priority 2015, dated 2021)

Legend:
[1] = Diffusivity of example drug molecules in water and in broad membrane pores; assay type: physicochemical; conditions: diffusivity within broad-pore membrane (HFHHP); unit not printed in this column, D is in cm^2/s
Text: Assuming that the pore diameter essentially exceeds the molecule dimension, which is necessary for drug release to occur in any of the modes of drug release, Dm can be presented as product of three multipliers: diffusivity in water D, membrane porosity ε and tortuosity t0; Dm=Dεt0^−1. The maximal porosity is about 0.5. Taking into account the tortuosity t0=2, Dm˜0.25D. Vl has to be replaced by local interstitial velocity Vint. In turn, Vint can be specified as Vn(LB), when the condition 2Rlb>>Rf is valid and the fabric is placed at a small distance from LB. […] As to lm, having its value be small is desirable for the diffusion-dominated case.
[formula] This yields, E=Pe^0.5. This equation estimate E from below, i.e., the real E is essentially larger. A larger Pe means a larger role of convection in comparison with diffusion. […] But the derived equation quantifies this observation. The diffusivity D depends on the water viscosity η and on the macromolecule radius r. This dependence is described by the Stokes-Einstein equation:
[formula] where k is the Boltzman constant, T is absolute temperature. r increases with molecular weight (MW) and 100<MW<500 g/mole. This is not true for proteins and larger molecules.
With respect to broad pores of membrane in case of HFHHP, Dm≅εt0^−1D˜0.25D.

[2] = diffusivity in water; cited from earlier work
[3] = tested on: Pseudomonas aeruginosa PAO1 Xen41; experiment: Zone of inhibition (modified Kirby-Bauer) of drug-loaded hollow fibers; assay type: cell-based; conditions: drug-loaded polypropylene hollow fibers (saturated solution)
Experimental: (§1) To assess the antimicrobial efficacy of drug loaded hollow fibers, we used a modified Kirby-Bauer assay where a zone of inhibition of bacterial growth was measured on a solid agar plate as is normally done in the field of microbiology. This model was used since it allowed us to capture the real time drug release from the hollow fibers and at the same time to represent a model of drug release into a soft tissue. […] Vancomycin was chosen for proof of principle with the hollow fibers devices because this antibiotic has precedent in being commonly used to combat S. aureus infection in orthopedic joint arthroplasties, where locally high concentrations are delivered by elution from both non-absorbable (polymethyl methacrylate, PMMA) and absorbable mineral cements. Ciprofloxacin was used since it is a broad spectrum antibiotic used to target Gram negative pathogens such as P. aeruginosa. In addition, water soluble fluorescein sodium was used as a model drug to assess the release of a hydrophilic water-soluble agent from the hollow fiber drug delivery system. All reagents were purchased from Sigma-Aldrich. P. aeruginosa and S. aureus are biofilm-forming pathogens commonly isolated from infected meshes and sutures, and the strains we have selected have been transformed with bioluminescent genes so that live biofilm development and activity can be tracked in real time using a photon counting camera (Xenogen IVIS imaging system, Alameda, Calif.).
(§2) A lawn of bacteria was spread out onto an LB (Luria broth) agar plate. The plate was incubated at 5% CO2 at 37° C. for 18 hours for the first challenge. The fibers were then aseptically removed from the original plate and placed on a fresh lawn of bacteria on a new plate for the second challenge and incubated as before. Drug-free hollow fibers rinsed with isopropanol alone were used as controls. Experiments were repeated in triplicate. […] The fibers were then placed on a fresh plate and re-challenged. […]

[4] = room temperature; cited from earlier work
[5] = tested on: Staphylococcus aureus 16MRSA Xen30; experiment: Zone of inhibition (modified Kirby-Bauer) of drug-loaded hollow fibers; assay type: cell-based
Experimental: as §1, §2

[6] = Saturated drug solutions in normal saline used to fill hollow fibers; assay type: physicochemical
Text: Pressure was applied on the syringe plunger until liquid drops were visibly seen to form at the open end of each of the hollow fibers.

Cn1c(=O)c2c(ncn2C)n(C)c1=O [Caffeine]
Dm = 0.25 D [1]: 1.5 × 10^−6
D (cm^2/s) Aqueous [2]: 4.9 × 10^−6 cm^2/s

O=C(O)c1cn(C2CC2)c2cc(N3CCNCC3)c(F)cc2c1=O [ciprofloxacin]
challenges over which a zone of inhibition was achieved [3]: one challenge

CO[C@H]1/C=C/O[C@@]2(C)Oc3c(C)c(O)c4c(O)c(c(/C=N/N5CCN(C)CC5)c(O)c4c3C2=O)NC(=O)/C(C)=C\C=C\[C@H](C)[C@H](O)[C@@H](C)[C@@H](O)[C@@H](C)[C@H](OC(C)=O)[C@@H]1C [rifampicin]
solubility in methanol [4]: at least 50 milligrams/milliliter

CN[C@H](CC(C)C)C(=O)N[C@H]1C(=O)N[C@@H](CC(N)=O)C(=O)N[C@H]2C(=O)N[C@H]3C(=O)N[C@H](C(=O)N[C@H](C(=O)O)c4cc(O)cc(O)c4-c4cc3ccc4O)[C@H](O)c3ccc(c(Cl)c3)Oc3cc2cc(c3O[C@@H]2O[C@H](CO)[C@@H](O)[C@H](O)[C@H]2O[C@H]2C[C@](C)(N)[C@H](O)[C@H](C)O2)Oc2ccc(cc2Cl)[C@H]1O [vancomycin]
period over which a zone of inhibition was achieved ([5]; drug-loaded polypropylene hollow fibers (saturated solution), repeated challenges on fresh lawns): 2 days
activity on the second challenge ([5]; fiber moved to a fresh plate and re-challenged): showed activity
concentration of saturated solution [6]: 100000 µg/mL

Insulin
Dm = 0.25 D [1]: 2.5 × 10^−7
D (cm^2/s) Aqueous [2]: 8.3 × 10^−7 cm^2/s
